According to ChEMBL document CHEMBL1124186, “Synthesis and evaluation of tylosin-related macrolides modified at the aldehyde function: a new series of orally effective antibiotics” (1988):
≈ marks a conversion by molar mass, not a printed value.

How the values were obtained:
Bacteroides fragilis [1] = experiment: In vitro antimicrobial activity against anaerobic bacteria bacteroides fragilis 111; format: functional
Bacteroides fragilis [2] = experiment: In vitro antimicrobial activity against anaerobic bacteria bacteroides fragilis 1877; format: functional
Bacteroides fragilis [3] = experiment: In vitro antimicrobial activity against anaerobic bacteria bacteroides fragilis 1936B,; format: functional
Eikenella corrodens = experiment: In vitro antimicrobial activity against anaerobic bacteria bacteroides corrodens 1874; format: functional
Phocaeicola vulgatus = experiment: In vitro antimicrobial activity against anaerobic bacteria bacteroides vulgatus 1211; format: functional
[4] = system: Prevotella melaninogenica; experiment: In vitro antimicrobial activity against anaerobic bacteria bacteroides melaninogenicus 1856,; format: functional
[5] = system: Bacteroides thetaiotaomicron; experiment: In vitro antimicrobial activity against anaerobic bacteria bacteroides thetaiotaomicron 1438; format: functional
Clostridioides difficile = experiment: In vitro antimicrobial activity against anaerobic bacteria Clostridium difficile 2994; format: functional
Clostridium perfringens = experiment: In vitro antimicrobial activity against anaerobic bacteria clostridium perfringens 81,; format: functional
Clostridium septicum = experiment: In vitro antimicrobial activity against anaerobic bacteria clostridium septicum 1128; format: functional
Chlamydia trachomatis = experiment: In vitro antimicrobial activity against chlamydia trachomatis.; format: functional
Fusobacterium = experiment: In vitro antimicrobial activity against anaerobic bacteria fusobacterium symbiosum 1470; format: functional
Haemophilus influenzae [6] = experiment: In vitro antimicrobial activity against aerobic bacteria Haemophilus influenzae 76; format: functional
Haemophilus influenzae [7] = experiment: In vitro antimicrobial activity against aerobic bacteria Haemophilus influenzae MX366; format: functional
Haemophilus influenzae [8] = experiment: In vitro antimicrobial activity against Haemophilus influenzae.; format: functional
[9] = In vitro antimicrobial activity against anaerobic bacteria peptostreptococcus intermedius 1264; format: functional
[10] = system: Peptoniphilus asaccharolyticus; experiment: In vitro antimicrobial activity against anaerobic bacteria peptococcus asaccharolyticus 1302; format: functional
Anaerococcus prevotii = experiment: In vitro antimicrobial activity against anaerobic bacteria peptococcus prevoti 1281; format: functional
Cutibacterium acnes = experiment: In vitro antimicrobial activity against anaerobic bacteria propionibacterium acnes 79; format: functional
Streptococcus [11] = experiment: In vitro antimicrobial activity against aerobic bacteria Streptococcus B 14; format: functional
Streptococcus [12] = experiment: In vitro antimicrobial activity against aerobic bacteria Streptococcus B 8; format: functional
Streptococcus [13] = experiment: In vitro antimicrobial activity against aerobic bacteria Streptococcus C 24; format: functional
Streptococcus [14] = experiment: In vitro antimicrobial activity against aerobic bacteria Streptococcus D 8043; format: functional
Streptococcus [15] = experiment: In vitro antimicrobial activity against aerobic bacteria Streptococcus D 9960; format: functional
Streptococcus [16] = experiment: In vitro antimicrobial activity against aerobic bacteria Streptococcus G Kruder; format: functional; details: Streptococcus; read-out: MIC
[17] = system: Staphylococcus epidermidis; experiment: In vitro antimicrobial activity against aerobic bacteria Streptococcus epi 270; format: functional
Streptococcus pneumoniae [18] = experiment: In vivo effective dose against experimental infections in mice Strep. pneumoniae park when administered sc; format: functional
Staphylococcus aureus [19] = experiment: In vitro antimicrobial activity against Staphylococcus aureus X1; format: functional
Staphylococcus aureus [20] = experiment: In vitro antimicrobial activity against aerobic bacteria Staphylococcus aureus 513E; format: functional
Staphylococcus aureus [21] = experiment: In vitro antimicrobial activity against aerobic bacteria Staphylococcus aureus V140,; format: functional
Staphylococcus aureus [22] = experiment: In vitro antimicrobial activity against aerobic bacteria Staphylococcus aureus V41; format: functional
Staphylococcus aureus [23] = experiment: In vitro antimicrobial activity against aerobic bacteria Staphylococcus aureus X400; format: functional
Streptococcus pneumoniae [24] = experiment: In vitro antimicrobial activity against aerobic bacteria Streptococcus pneumoniae B1-438; format: functional, streptococcus pneum
Streptococcus pneumoniae [25] = experiment: In vivo effective dose against experimental infections in mice Strep. pneumoniae park when administered orally; format: functional; details: po
Streptococcus pyogenes [26] = experiment: In vivo effective dose against experimental infections in rodent caused by Streptococcus pyogenes C203 when administered sc; format: functional
Streptococcus sanguinis = experiment: In vitro antimicrobial activity against aerobic bacteria Streptococcus sanguis MX132; format: functional
Streptococcus pneumoniae [27] = experiment: In vitro antimicrobial activity against Streptococcus pneumoniae; format: functional
[28] = system: Staphylococcus epidermidis; experiment: In vitro antimicrobial activity against Staphylococcus epidermidis EPI1; format: functional
[29] = system: Staphylococcus epidermidis; experiment: In vitro antimicrobial activity against aerobic bacteria Streptococcus epi 222; format: functional
Staphylococcus aureus [30] = experiment: In vivo effective dose against experimental infections in mice Staphylococcus aureus X1 when administered orally; format: functional; details: po
Staphylococcus aureus [31] = experiment: In vivo effective dose against experimental infections in mice Staphylococcus aureus X1 when administered sc; format: functional
Enterococcus faecium = experiment: In vitro antimicrobial activity against Streptococcus faecium X66; format: functional, streptococcus fae-cium
Streptococcus pyogenes [32] = experiment: In vitro antimicrobial activity against Streptococcus pyogenes C203; format: functional
Streptococcus viridans = experiment: In vitro antimicrobial activity against aerobic bacteria Streptococcus viridans 9943; format: functional
Streptococcus [33] = experiment: In vitro antimicrobial activity against aerobic bacteria Streptococcus B 5; format: functional
Staphylococcus aureus [34] = experiment: In vitro antimicrobial activity against aerobic bacteria Staphylococcus aureus V135; format: functional
[35] = system: Prevotella melaninogenica; experiment: In vitro antimicrobial activity against anaerobic bacteria bacteroides melaninogenicus 2736; format: functional
[36] = system: Fusobacterium necrophorum; experiment: In vitro antimicrobial activity against anaerobic bacteria usobacterium necrophorum 6054A; format: functional
Collinsella aerofaciens = experiment: In vitro antimicrobial activity against anaerobic bacteria eubacterium aerofaciens 1235; format: functional
Streptococcus [37] = experiment: In vitro antimicrobial activity against aerobic bacteria Streptococcus D 2041; format: functional
[38] = system: Peptostreptococcus anaerobius; experiment: In vitro antimicrobial activity against anaerobic bacteria eubacterium peptostreptococcus anaerobius 1428,; format: functional

`CC[C@H]1OC(=O)C[C@@H](O)[C@H](C)[C@@H](O[C@@H]2O[C@H](C)[C@@H](O)[C@H](N(C)C)[C@H]2O)[C@@H](CCN=[N+]=[N-])C[C@@H](C)C(=O)/C=C/C(C)=C/[C@@H]1CO[C@@H]1O[C@H](C)[C@@H](O)[C@@H](OC)[C@H]1OC` showed an MIC (Bacteroides fragilis [1]) of 2 µg/mL (≈ 2.5 µM), an MIC (Bacteroides fragilis [2]) of 2 µg/mL (≈ 2.5 µM) and an MIC (Bacteroides fragilis [3]) of 2 µg/mL (≈ 2.5 µM). It also gave an MIC (Eikenella corrodens) of 2 µg/mL (≈ 2.5 µM), an MIC (Phocaeicola vulgatus) of 2 µg/mL (≈ 2.5 µM) and an MIC [4] of 1 µg/mL (≈ 1.25 µM). The MIC [5] was 2 µg/mL (≈ 2.5 µM), the MIC (Clostridioides difficile) was less than 0.5 µg/mL and the MIC (Clostridium perfringens) was less than 0.5 µg/mL. The MIC (Clostridium septicum) was less than 0.5 µg/mL, the MIC (Chlamydia trachomatis) was 0.5 µg/mL (≈ 0.626 µM) and the MIC (Fusobacterium) was 2 µg/mL (≈ 2.5 µM). It also gave an MIC (Haemophilus influenzae [6]) of 4 µg/mL (≈ 5.01 µM), an MIC (Haemophilus influenzae [7]) of 32 µg/mL (≈ 40.1 µM) and an MIC (Haemophilus influenzae [8]) of 16 µg/mL (≈ 20 µM). The MIC [9] was 2 µg/mL (≈ 2.5 µM), the MIC [10] was 1 µg/mL (≈ 1.25 µM) and the MIC (Anaerococcus prevotii) was 2 µg/mL (≈ 2.5 µM). It also gave an MIC (Cutibacterium acnes) of 16 µg/mL (≈ 20 µM), an MIC (Streptococcus [11]) of 16 µg/mL (≈ 20 µM) and an MIC (Streptococcus [12]) of 8 µg/mL (≈ 10 µM). It also gave an MIC (Streptococcus [13]) of 0.5 µg/mL (≈ 0.626 µM), an MIC (Streptococcus [14]) of 4 µg/mL (≈ 5.01 µM) and an MIC (Streptococcus [15]) of 8 µg/mL (≈ 10 µM). For the same compound, the MIC (Streptococcus [16]) was 64 µg/mL (≈ 80.1 µM), the MIC [17] was greater than 128 µg/mL and the ED50 (Streptococcus pneumoniae [18]) was greater than 20 mg/kg. It also gave an MIC (Staphylococcus aureus [19]) of 0.12 µg/mL (≈ 0.15 µM), an MIC (Staphylococcus aureus [20]) of 0.12 µg/mL (≈ 0.15 µM) and an MIC (Staphylococcus aureus [21]) of 0.25 µg/mL (≈ 0.313 µM). The MIC (Staphylococcus aureus [22]) was 0.12 µg/mL (≈ 0.15 µM), the MIC (Staphylococcus aureus [23]) was 0.25 µg/mL (≈ 0.313 µM) and the MIC (Streptococcus pneumoniae [24]) was greater than 128 µg/mL. The ED50 (Streptococcus pneumoniae [25]) was greater than 50 mg/kg, the ED50 (Streptococcus pyogenes [26]) was 3.8 mg/kg and the MIC (Streptococcus sanguinis) was 1 µg/mL (≈ 1.25 µM). For the same compound, the MIC (Streptococcus pneumoniae [27]) was 2 µg/mL (≈ 2.5 µM), the MIC [28] was 0.12 µg/mL (≈ 0.15 µM) and the MIC [29] was 0.25 µg/mL (≈ 0.313 µM). The ED50 (Staphylococcus aureus [30]) was 18 mg/kg, the ED50 (Staphylococcus aureus [31]) was 2.8 mg/kg and the MIC (Enterococcus faecium) was 4 µg/mL (≈ 5.01 µM). For the same compound, the MIC (Streptococcus pyogenes [32]) was 0.25 µg/mL (≈ 0.313 µM), the MIC (Streptococcus viridans) was greater than 128 µg/mL and the MIC (Streptococcus [33]) was 8 µg/mL (≈ 10 µM). It also gave an MIC (Staphylococcus aureus [34]) of 0.25 µg/mL (≈ 0.313 µM), an MIC [35] of 2 µg/mL (≈ 2.5 µM) and an MIC [36] of 16 µg/mL (≈ 20 µM). The MIC (Collinsella aerofaciens) was 2 µg/mL (≈ 2.5 µM), the MIC (Streptococcus [37]) was 16 µg/mL (≈ 20 µM) and the MIC [38] was less than 0.5 µg/mL.
